What was measured:
[1] = tested on: MRSA S. aureus (FQR700699); test: Minimum inhibitory concentration (MIC) assay, broth microdilution; type: cell-based; design: MIC MRSA: unit not given beside the values; details: for MIC MRSA: Table I
Procedure: (§1) The antimicrobial activity of the compounds of the invention may be evaluated by a number of methods, including the following visual minimum inhibitory concentration (MIC) assay. This assay determines the minimum concentration of compound required to inhibit growth of a bacterial strain.
(§2) Whole-cell antibacterial activity is determined by broth microdilution using conditions recommended by the NCCLS (see National Committee for Clinical Laboratory Standards. 2001. Performance standards for antimicrobial susceptibility testing: 11th informational supplement. Vol. 21, no. 1, M100-S11. National Committee for Clinical Laboratory Standards, Wayne, Pa.). Test compounds are dissolved in DMSO and diluted 1:50 in Mueller-Hinton II broth (Becton-Dickinson) to produce a 256 μg/ml stock solution. In a 96-well microtiter plate, the compound solution is serially two-fold diluted in Mueller-Hinton II broth. After the compounds are diluted, a 50 μl aliquot of the test organism (˜1×10^6 cfu/mL) is added to each well of the microtiter plate. The final test concentrations ranges from 0.125-128 μg/mL. Inoculated plates are incubated in ambient air at 37° C. for 18 to 24 hours. The organisms selected for testing included laboratory strains S. aureus ATCC 29213 and E. coli ATCC 25922 (strains purchased from American Type Culture Collection, Manassas, Va.), S. aureus FQR700699, and Paeruginosa 27853. The minimum inhibitory concentration (MIC) is determined as the lowest concentration of compound that inhibited visible growth of the test organism.

[2] = tested on: S. aureus ATCC 29213 (MSSA); test: as above; type: cell-based; details: methicillan sufficient S. aureus
Procedure: as §1
as §2, with “The organisms selected for testing included laboratory strains S. aureus ATCC 29213 and E. coli ATCC 25922 (strains purchased from American Type Culture Collection, Manassas, Va.), S. aureus FQR700699, and Paeruginosa 27853.” left out

E. coli ATCC 25922 = test: as above; type: cell-based
Procedure: as §1
as §2, with “The organisms selected for testing included laboratory strains S. aureus ATCC 29213 and E. coli ATCC 25922 (strains purchased from American Type Culture Collection, Manassas, Va.), S. aureus FQR700699, and Paeruginosa 27853.” left out

[3] = tested on: Hep 2 (laryngeal carcinoma); details: Hep 2 cells, positive control; cited from earlier work
[4] = tested on: CHO (Chinese hamster ovary); details: CHO cells, positive control; cited from earlier work

Compound: C[C@H]1COc2c(N3CC[C@@H](C(C)(C)N)C3)c(F)cc3c(=O)c4c(=O)[nH]sc4n1c23 [Compound II, (S)-4-((R)-3-(2-aminopropan-2-yl)pyrrolidin-1-yl)-5-fluoro-1-methyl-1H-isothiazolo[5,4-B][1,4]oxazino[2,3,4-ij]quinoline-7,8(2H,9H)-dione]
- minimal inhibitory concentration (MIC) ([1]; methicillan resistant S. aureus): 0.125
- minimal inhibitory concentration (MIC) [2]: 0.016
- minimal inhibitory concentration (MIC) (E. coli ATCC 25922): 0.062

Compound: CC(C)(C)c1ccc(C(O)CCCN2CCC(C(O)(c3ccccc3)c3ccccc3)CC2)cc1 (stereo not drawn) [Terfenadine]
- CC50 [3]: 3 to 5 µM
- CC50 [4]: 4.3 to 6.5 µM

Compound: C[C@H]1COc2c(N3CCN(C)CC3)c(F)cc3c(=O)c4c(=O)[nH]sc4n1c23 [compound 6, (S)-5-fluoro-1-methyl-4-(4-methylpiperazin-1-yl)-1H-isothiazolo[5,4-b][1,4]oxazino[2,3,4-ij]quinoline-7,8(2H,9H)-dione]
- MIC MRSA [1]: 4

Compound: C[C@H]1COc2c(N3CC[C@H](N)C3)c(F)cc3c(=O)c4c(=O)[nH]sc4n1c23 [compound 7, (S)-4-((S)-3-aminopyrrolidin-1-yl)-5-fluoro-1-methyl-1H-isothiazolo[5,4-b][1,4]oxazino[2,3,4-ij]quinoline-7,8(2H,9H)-dione]
- MIC MRSA [1]: 1

Compound: C[C@H]1COc2c(N3CC[C@@H](CN)C3)c(F)cc3c(=O)c4c(=O)[nH]sc4n1c23 [compound 8, (S)-4-((S)-3-(aminomethyl)pyrrolidin-1-yl)-5-fluoro-1-methyl-1H-isothiazolo[5,4-b][1,4]oxazino[2,3,4-ij]quinoline-7,8(2H,9H)-dione]
- MIC MRSA [1]: 0.5

Compound: C[C@H]1COc2c(N3CCNCC3)c(F)cc3c(=O)c4c(=O)[nH]sc4n1c23 [compound 9, (S)-5-fluoro-1-methyl-4-(piperazin-1-yl)-1H-isothiazolo[5,4-b][1,4]oxazino[2,3,4-ij]quinoline-7,8(2H,9H)-dione]
- MIC MRSA [1]: 8

— patent publication US20090012071A1, “4-SUBSTITUTED-1H-ISOTHIAZOLO[5,4-B][1,4]OXAZINO[2,3,4-IJ]QUINOLINE-7,8(2H,9H)-DIONES AND RELATED COMPOUNDS AS ANTI-INFECTIVE AGENTS” (priority 2007, published 2009)
